Common to all, as to assay type: biochemical
One assay addresses T1, CDK4/Cyclin D3 complex (Homo sapiens, UniProt P11802).
T1 construct: made in house; host or cells: insect cells co-infected with baculovirus vectors
Put plainly: CDK4/Cyclin D assay. The conditions noted are these: for inhibition at 1 µM: combinatorial library compounds; for inhibition at 100 µM: at 100 (printed 100 or 100 μM). As for the experimental part: CDK4/Cyclin D Construct for Assay: A complex of human CDK4 and cyclin D3, or a complex of cyclin DI and a fusion protein of human CDK4 and glutathione-S-transferase (GST-CDK4), was purified using traditional biochemical chromatographic techniques from insect cells that had been co-infected with the corresponding baculovirus expression vectors.
(§1) CDK2/Cyclin A and CDK4/Cyclin D Assays
(§2) Cyclin-dependent kinase activity was measured by quantifying the enzyme-catalyzed, time-dependent incorporation of radioactive phosphate from [^32P]ATP into a recombinant fragment of the retinoblastoma protein. Unless noted otherwise, assays were performed in 96-well plates in a total volume of 50 μL, in the presence of 10 mM HEPES (N-[2-hydroxyethyl]piperazine-N′-[2-ethanesulfonic acid]) (pH 7.4), 10 mM MgCl2, 25 μM adenosine triphosphate (ATP), 1 mg/mL ovalbumin, 5 μg/mL leupeptin, 1 mM dithiothreitol, 10 mM β-glycerophosphate, 0.1 mM sodium vanadate, 1 mM sodium fluoride, 2.5 mM ethylene glycol-bis(β-aminoethyl ether)-N,N,N′N′-tetraacetic acid (EGTA), 2% (v/v) dimethylsulfoxide, and 0.03-0.2 μCi [^32P]ATP. The substrate (0.3-0.5 μg) was purified recombinant retinoblastoma protein fragment (Rb) (residues 386-928 of the native retinoblastoma protein; 62.3 kDa, containing the majority of the phosphorylation sites found in the native 106-kDa protein, as well as a tag of six histidine residues for ease of purification). Reactions were initiated with CDK2 (150 nM CDK2/Cyclin A complex) or CDK4 (50 nM CDK4/Cyclin D3 complex), incubated at 30° C., and terminated after 20 minutes by the addition of ethylenediaminetetraacetic acid EDTA) to 250 mM. The phosphorylated substrate was then captured on a nitrocellulose membrane using a 96-well filtration manifold, and unincorporated radioactivity was removed by repeated washing with 0.85% phosphoric acid. Radioactivity was quantified by exposing the dried nitrocellulose membranes to a phosphorimager. Apparent Ki values were measured by assaying enzyme activity in the presence of different compound concentrations and subtracting the background radioactivity measured in the absence of enzyme. The kinetic parameters (kcat, Km for ATP) were measured for each enzyme under the usual assay conditions by determining the dependence of initial rates on ATP concentration. The data were fit to an equation for competitive inhibition using Kaleidagraph (Synergy Software), or were fit to an equation for competitive tight-binding inhibition using the software KineTic (BioKin, Ltd.). Measured Ki values for known inhibitors against CDK4 and CDK2 agreed with published IC50 values. The specific activity of CDK4 was the same whether complexed to full-length cyclin D3 or the truncated Cyclin D3 construct; both complexes also yielded very similar Ki values for selected inhibitors.

Assay [1] concerns the target T2, phosphorylated VEGF-R2Δ50 (FLVK-P) (Homo sapiens, UniProt P35968, DEL940-989/E990V).
T2 construct: VEGF-R2Δ50 contains residues 806-939 and 990-1171; made in house; host or cells: baculovirus/insect cells
Put plainly: VEGF-R2 coupled spectrophotometric (FLVK-P) assay. The conditions noted are these: read-out: VEGF % inhibition at 20 μM, 20 μM; combinatorial library compounds. The procedure, abridged:
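Baculovirus-expressed human VEGF-R2Δ50 (residues 806-939/990-1171, E990V) was autophosphorylated with 3 mM ATP, 40 mM MgCl2 for 2 h at 4° C. ADP formation was coupled via PK/LDH to NADH oxidation, read at 340 nm, with 5.1 mM poly(E4Y1), 1 mM ATP, 25 mM MgCl2, Hepes pH 7.5. Ki came from activity across compound concentrations.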

The target of another assay is CDK2/Cyclin A complex (Homo sapiens, UniProt P24941). Briefly: CDK2/Cyclin A assay. The conditions noted are these: for inhibition at 1 µM: combinatorial library compounds.
Text: CDK2/Cyclin A Construct for Assay: CDK2 was purified using published methodology (Rosenblatt et al., J. Mol. Biol., 230, 1317-1319 (1993)) from insect cells that had been infected with a baculovirus expression vector. Cyclin A was purified from E. coli cells expressing full-length recombinant cyclin A, and a truncated cyclin A construct was generated by limited proteolysis and purified as described previously (Jeffrey et al., Nature, 376, 313-320 (Jul. 27, 1995)).
as §1, §2

Another assay addresses T3, FL-CHK1 (Homo sapiens, UniProt O14757).
T3 construct: C-terminally His-tagged full-length human CHK1 (FL-CHK1); 6xHis (C); made in house; host or cells: baculovirus/insect cells
T3 sequence (O14757 1-476): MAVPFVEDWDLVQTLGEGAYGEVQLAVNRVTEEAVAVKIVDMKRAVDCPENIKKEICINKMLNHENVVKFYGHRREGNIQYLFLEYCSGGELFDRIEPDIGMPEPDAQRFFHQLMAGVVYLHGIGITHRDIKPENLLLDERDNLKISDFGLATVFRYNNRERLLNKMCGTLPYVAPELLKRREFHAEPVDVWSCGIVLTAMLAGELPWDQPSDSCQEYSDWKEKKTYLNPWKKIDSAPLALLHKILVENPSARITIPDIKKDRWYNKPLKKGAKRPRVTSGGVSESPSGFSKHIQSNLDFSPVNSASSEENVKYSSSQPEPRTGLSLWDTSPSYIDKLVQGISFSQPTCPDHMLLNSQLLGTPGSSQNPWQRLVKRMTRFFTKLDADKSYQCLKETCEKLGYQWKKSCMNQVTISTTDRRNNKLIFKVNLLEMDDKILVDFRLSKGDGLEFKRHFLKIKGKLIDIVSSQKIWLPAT
Briefly: CHK1 assay. The conditions noted are these: 20 μM; combinatorial library compounds. The text has this:
CHK-1 Construct for Assay: C-terminally His-tagged full-length human CHK1 (FL-CHK1) was expressed using the baculovirus/insect cell system. It contains 6 histidine residues (6×His-tag) at the C-terminus of the 476 amino acid human CHK1. The protein was purified by conventional chromatographic techniques.
The production of ADP from ATP that accompanies phosphoryl transfer to the synthetic substrate peptide Syntide-2 ([…]) was coupled to oxidation of NADH using phosphoenolpyruvate (PEP) through the actions of pyruvate kinase (PK) and lactic dehydrogenase (LDH). The oxidation of NADH was monitored by following the decrease of absorbance at 340 nm (ε340=6.22 cm^−1 mM^−1) using a HP8452 spectrophotometer. Typical reaction solutions contained: […]; 0.15 mM NADH; 28 units of LDH/ml; 16 units of PK/ml; 3 mM DTT; 0.125 mM Syntide-2; 0.15 mM ATP; 25 mM MgCl2 in 50 mM TRIS, pH 7.5; and 400 mM NaCl. Assays were initiated with 10 nM of FL-CHK1. Ki values were determined by measuring initial enzyme activity in the presence of varying concentrations of test compounds. The data were analyzed using Enzyme Kinetic and Kaleidagraph software.

One may read the inhibition as the change of the read-out against control, counted positive when it falls. What is called Ki is the dissociation constant of the complex between target and ligand, obtained from inhibition or displacement.

Molecules are shown by their SMILES.

T2 sequence (P35968 with tags, fused parts or gaps DEL940-989/E990V limits assumed): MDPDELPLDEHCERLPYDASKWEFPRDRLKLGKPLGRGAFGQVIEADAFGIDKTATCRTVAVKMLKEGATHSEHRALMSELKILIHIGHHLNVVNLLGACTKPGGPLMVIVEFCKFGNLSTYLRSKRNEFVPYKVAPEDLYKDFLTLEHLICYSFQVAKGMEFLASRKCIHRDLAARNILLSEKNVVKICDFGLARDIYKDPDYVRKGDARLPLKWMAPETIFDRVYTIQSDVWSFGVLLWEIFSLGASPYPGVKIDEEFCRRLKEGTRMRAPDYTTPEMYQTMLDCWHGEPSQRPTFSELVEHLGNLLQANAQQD
T1 sequence (P11802 whole entry): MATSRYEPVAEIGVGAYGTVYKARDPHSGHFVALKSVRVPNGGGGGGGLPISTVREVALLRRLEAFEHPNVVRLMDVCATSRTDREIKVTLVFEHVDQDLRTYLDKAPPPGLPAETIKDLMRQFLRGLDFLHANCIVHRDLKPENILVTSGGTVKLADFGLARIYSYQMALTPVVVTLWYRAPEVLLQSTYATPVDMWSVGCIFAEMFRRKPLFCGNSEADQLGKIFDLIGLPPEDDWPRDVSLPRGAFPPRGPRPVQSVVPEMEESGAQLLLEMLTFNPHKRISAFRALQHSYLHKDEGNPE
T1 sequence (P30281 whole entry partner): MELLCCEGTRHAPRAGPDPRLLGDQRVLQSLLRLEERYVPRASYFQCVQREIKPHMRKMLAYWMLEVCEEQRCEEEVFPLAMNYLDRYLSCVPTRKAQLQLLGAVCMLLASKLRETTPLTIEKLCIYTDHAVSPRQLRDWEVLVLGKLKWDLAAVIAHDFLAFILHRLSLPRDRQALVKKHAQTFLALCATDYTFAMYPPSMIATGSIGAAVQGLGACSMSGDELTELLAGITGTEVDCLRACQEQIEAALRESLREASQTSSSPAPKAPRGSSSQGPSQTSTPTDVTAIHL

For `COc1cccc(-c2csc(-c3sc(Nc4ccc(S(N)(=O)=O)cc4)nc3N)n2)c1`, the figures for the inhibition at 1 µM at CDK4/Cyclin D3 complex and at CDK2/Cyclin A complex were -4.2% and 5.9%, respectively. The inhibition at 20 µM worked out at 23% in assay [1] and 15.2% at FL-CHK1.

In the case of `CCOC(=O)c1ccccc1-c1csc(-c2sc(Nc3ccc(S(N)(=O)=O)cc3)nc2N)n1`, the inhibition at 1 µM on CDK4/Cyclin D3 complex was determined as 53.3%; on CDK2/Cyclin A complex, 52.6%. For the same molecule, the values for the inhibition at 20 µM (in assay [1]; on FL-CHK1) were 9% and 11.4%, respectively.

`Cc1c(C)c(C)c(-c2csc(-c3sc(Nc4ccc(S(N)(=O)=O)cc4)nc3N)n2)c(C)c1C`: the inhibition at 1 µM at CDK4/Cyclin D3 complex turned out to be 64.1%; at CDK2/Cyclin A complex it was 77.2%. Further, the inhibition at 20 µM in assay [1] came out at 33%; at FL-CHK1, 29%.

For the molecule `CCCCCc1ccc(-c2csc(-c3sc(Nc4ccc(S(N)(=O)=O)cc4)nc3N)n2)cc1`, the inhibition at 1 µM was -7.2% at CDK4/Cyclin D3 complex and -9.9% on CDK2/Cyclin A complex. In addition, the inhibition at 20 µM on FL-CHK1 was 10.8%.

`CCOC(=O)c1ccc(-c2csc(-c3sc(Nc4cc(OC)c(OC)c(OC)c4)nc3N)n2)cc1` [A(11), 4-[4′-Amino-2′-(3,4,5-trimethoxy-phenylamino)-[2,5′]bithiazolyl-4-yl]-benzoic acid ethyl ester]: the inhibition at 100 µM at CDK4/Cyclin D3 complex (Table 2) came to 33%.

Consider `CN(C)CCNS(=O)(=O)c1ccc(Nc2nc(N)c(-c3nc(C(=O)c4ccccc4)cs3)s2)cc1` [A(71), 4-(4′-Amino-4-benzoyl-[2,5′]bithiazolyl-2′-ylamino)-N-(2-dimethylamino-ethyl)-benzenesulfonamide], for which the Ki on CDK4/Cyclin D3 complex (Table 2) is 190000 nM; at CDK2/Cyclin A complex (Table 2), 29000 nM.

For the molecule `Nc1cccc(C(=O)c2csc(-c3sc(Nc4ccc(S(N)(=O)=O)cc4)nc3N)n2)c1` [A(72), 4-[4-Amino-4-(3-amino-benzoyl)-[2,5′]bithiazoyl-2′-ylamino]-benzenesulfonamide], the inhibition at 5 µM at CDK4/Cyclin D3 complex (Table 2) was determined as 48%. At CDK2/Cyclin A complex (Table 2), the Ki came to 160 nM.

Regarding `Nc1cccc(-c2csc(-c3sc(Nc4ccc(S(N)(=O)=O)cc4)nc3N)n2)c1` [C(3)], the figures for the inhibitory constant (Ki) at CDK4/Cyclin D3 complex (Table 2) and on CDK2/Cyclin A complex (Table 2) were 4600 nM and 2700 nM, respectively.

With `Nc1nc(N)c(-c2nc(C(=O)c3ccccc3)cs2)s1` [E(4), (2′,4′-Diamino-[2,5′]bithiazolyl-4-yl)-phenyl-methanone], the inhibition constant Ki on CDK4/Cyclin D3 complex (Table 2) amounted to 21000 nM; at CDK2/Cyclin A complex (Table 2) it was 8800 nM.

For `CC(=O)Nc1nc(N)c(-c2nc(C(=O)c3ccccc3)cs2)s1` [F(16), N-(4′-Amino-4-benzoyl-[2,5′]bithiazolyl-2′-yl)-acetamide], the inhibition at 5 µM on CDK4/Cyclin D3 complex (Table 3) was 35%. In addition, the Ki on CDK2/Cyclin A complex (Table 3) amounted to 480 nM.

As for `COc1cc(Nc2nc(N)c(-c3cccc(Br)n3)s2)cc(OC)c1OC` [G(6), 5-(6-Bromo-pyridin-2-yl)-2-N-(3,4,5-trimethoxy-phenyl)-thiazole-2,4-diamine], on CDK4/Cyclin D3 complex (Table 2), the Ki worked out at 100000 nM.

As for `Nc1nc(Nc2ccc(S(N)(=O)=O)cc2)sc1-c1nccn1Cc1ccc(Cl)cc1` [G(8), 4-{4-Amino-5-[1-(4-chloro-benzyl)-1H-imidazol-2-yl]-thiazol-2-ylamino}-benzenesulfonamide], the inhibition at 100 µM at CDK4/Cyclin D3 complex (Table 2) was determined as 31%. For the same molecule, the inhibitory constant (Ki) at CDK2/Cyclin A complex (Table 2) was determined as 18000 nM.

Consider `Nc1nc(Nc2ccc(S(N)(=O)=O)cc2)sc1-c1nc(O)c(-c2ccc(O)cc2)s1` [H(2), 4-[4′-Amino-4-hydroxy-5-(4-hydroxy-phenyl)-[2,5′]bithiazolyl-2′-yl-amino]-benzenesulfonamide], for which the inhibition constant Ki at CDK4/Cyclin D3 complex (Table 2) is 11000 nM; at CDK2/Cyclin A complex (Table 2), 10400 nM.

In the case of `Nc1nc(Nc2ccc(S(N)(=O)=O)cc2)sc1-c1nc(O)c(-c2ccccc2O)s1` [H(4), 4-[4′-Amino-4-hydroxy-5-(2-hydroxy-phenyl)-[2,5′]bithiazoly-2′-ylamino]-benzenesulfonamide], the figures for the Ki at CDK4/Cyclin D3 complex (Table 2) and at CDK2/Cyclin A complex (Table 2) were 2100 nM and 2600 nM, respectively.

For the molecule `Nc1nc(Nc2ccc(S(N)(=O)=O)cc2)sc1C1=NC2(O)OCCC2S1` (stereo not shown) [H(5), 4-[4′-Amino-4-hydroxy-5-(2-hydroxy-ethyl)-3′H-1′-[2,5]bithiazolyl-2′-ylamino]-benzenesulfonamide], the inhibition at 100 µM at CDK4/Cyclin D3 complex (Table 2) is under 0%. Besides, the “CDK2 % inhibition @ 100” value at CDK2/Cyclin A complex (Table 2, at 100 (printed 100 or 100 μM)) was 29% @.

On to `Nc1csc(-c2sc(Nc3ccc(S(N)(=O)=O)cc3)nc2N)n1` [H(6), 4-(4,4′-Diamino-[2,5′]bithiazolyl-2′-ylamino)-benzenesulfonamide], for which the inhibition constant (Ki) on CDK4/Cyclin D3 complex (Table 2) was 1200 nM; at CDK2/Cyclin A complex (Table 2), 200 nM.

As to `COc1cc(Nc2nc(N)c(C3=N[C@H](Cc4ccccc4)CO3)s2)cc(OC)c1OC` [I(2), R-5-(4-Benzyl-4,5-dihydro-oxazol-2-yl)-N^2-(3,4,5-trimethoxyl-phenyl)-thiazole-2,4-diamine], at CDK4/Cyclin D3 complex (Table 2), the inhibition at 100 µM was under 0%.

On to `COc1cc(Nc2nc(N)c(C3=NC(C(C)OCc4ccccc4)CO3)s2)cc(OC)c1OC` [I(4), 5-{(4R)-[(1R)-Benzyloxy-ethyl]-4,5-dihydro-oxazol-2-yl}-N^2-(3,4,5-trimethoxyl-phenyl)-thiazole-2,4-diamine], for which, on CDK4/Cyclin D3 complex (Table 2), the inhibition at 100 µM was under 0%.

Regarding `CN(C)CCNC(=O)c1csc(-c2sc(Nc3ccc(S(N)(=O)=O)cc3)nc2N)n1` [N(2), 4-Amino-2′-(4-sulfamoyl-phenylamino)-[2,5′]-bithiazoyl-4-carboxylic acid (2-dimethylamino-ethyl)-amide], the Ki on CDK4/Cyclin D3 complex (Table 3) is 1300 nM; at CDK2/Cyclin A complex (Table 3), 120 nM.

For the molecule `Nc1nc(Nc2ccc(S(N)(=O)=O)cc2)sc1-c1nc(C(=O)Nc2ccccc2)cs1` [N(4), 4′-Amino-2′-(4-sulfamoyl-phenylamino)-[2,5′]bithiazolyl-4 carboxylic acid phenylamide], the inhibition constant Ki on CDK4/Cyclin D3 complex (Table 3) came to 480 nM; at CDK2/Cyclin A complex (Table 3) it was 158 nM.

These data come from patent US6620828B2, “Thiazole compounds and pharmaceutical compositions for inhibiting protein kinases and methods for their use” (Agouron Pharmaceuticals, Inc., priority 1999, dated 2003).
